Measured values taken from patent publication EP0995441A2, “Combination of compounds for treating erectile dysfunctions” (priority 1998, dated 2000).
Several values for one entry are separate records, joined by “and”; a condition that tells them apart may be missing. Equal values may be shown once.

Key:
[1] = tested on: Patienten mit Sildenafilresistenz; test: Clinical study: erection response after oral drug combination in patients not responding to sildenafil alone; assay type: in vivo
Procedure: Überraschenderweise erwies sich in klinischen Studien, daß Patienten mit erektiler Impotenz (ED) nach Therapieversagen unter der Behandlung mit Sildenafil allein (ED-SN negativ nach Sildenafil-Therapie in einer Menge von 100 mg Sildenafil) mit der erfindungsgemäßen Medikamentenkombination erfolgreich therapierbar waren.
Tabelle 1 zeigt die Wirkung einer Medikamentenkombination, bestehend aus Sildenafil und Midodrin der chemischen Strukturformel: [drawing 3] wobei die Sildenafil-Mengen von 10 bis 100 mg und die Midodrin-Mengen von 5 bis 25 mg variiert wurden.
Bei 10 Patienten mit ED-SN im Alter zwischen 45 bis 65 Jahren ohne Nitropräparate und koronare Herzkrankheiten lag beispielsweise die Ansprechrate der Medikamentenkombination, bestehend aus 50 mg Sildenafil und 25 mg Midodrin bei 7 von 10 Patienten, wenn die Medikamentenkombination in Form von Zwei-Kompartment-Dragees gegeben wurde.
Bei Gabe der Medikamentenkombination in einer üblichen Retard-Form gelang es, die Ansprechrate auf 8 von 10 Patienten zu erhöhen. Tabelle 1

[2] = tested on: Sphincter internus und Sphincter externus; test: Endoscopic observation and fibre-optic pressure measurement in the prostatic urethra after injection into the corpora cavernosa; assay type: in vivo, Patienten mit Priapismus; settings: Vergleichsgruppe with clinically sufficient erection after 100 mg Sildenafil
Text: Diese pharmakologischen Veränderungen sind ein indirekter Hinweis auf die alterierte Gefäßabflußsituation im Funktionsbereich der angrenzenden Organe an die Corpora cavernosa.

[3] = Sildenafil Monodosis 100 mg, control of the Retardform group

CCCc1nn(C)c2c(=O)[nH]c(-c3cc(S(=O)(=O)N4CCN(C)CC4)ccc3OCC)nc12 [Sildenafil]
Kontrolle, 1. REAKTION (INITIALPHASE): patients reacting out of 10 ([1]; Sildenafil Monodosis 10 mg): 0/10 | Kontrolle, 50% REAKTION: patients reacting out of 10 ([1]; Sildenafil Monodosis 10 mg): 0/10 | Kontrolle, MAXIMALE EREKTION: patients reacting out of 10 ([1]; Sildenafil Monodosis 10 mg): 0/10 | Kontrolle, 1. REAKTION (INITIALPHASE): patients reacting out of 10 ([1]; Sildenafil Monodosis 50 mg): 0/10 and 1/10 | Kontrolle, 50% REAKTION: patients reacting out of 10 ([1]; Sildenafil Monodosis 50 mg): 0/10 | Kontrolle, MAXIMALE EREKTION: patients reacting out of 10 ([1]; Sildenafil Monodosis 50 mg): 0/10 | Kontrolle, 1. REAKTION (INITIALPHASE): patients reacting out of 10 ([1]; Sildenafil Monodosis 100 mg): 1/10 and 0/10 | Kontrolle, 50% REAKTION: patients reacting out of 10 ([1]; Sildenafil Monodosis 100 mg): 1/10 and 0/10 | Kontrolle, MAXIMALE EREKTION: patients reacting out of 10 ([1]; Sildenafil Monodosis 100 mg): 0/10 | Kontrolle, 50% REAKTION: time [1, 3]: 105 min | Kontrolle, MAXIMALE EREKTION: time [1, 3]: 120 min | Druckwerte im Bereich des Sphincter internus sowie des Sphincter externus [2]: keine vergleichbaren hohen Druckwerte
